Results taken from EPA's ToxRefDB 2.

Key:
hamster = details: Chronic toxicity, Oral, Feed, dose end: 24 month, group: systemic
rat [1] = details: Subchronic oral toxicity in rodents, sprague dawley, Feed, dose end: 90 day, group: systemic
rat [2] = details: Combined chronic toxicity/carcinogenicity; sprague dawley; Oral; Feed; dose end: 24 month; group: systemic; systemic / in life observation / body weight / body weight
rat [3] = details: Prenatal developmental toxicity study, sprague dawley, Oral, Gavage/Intubation, dose end: 20 GD
dog [4] = details: Chronic toxicity, beagle, Oral, Capsule, dose end: 12 month, group: systemic
rat [5] = details: Multigenerational reproductive toxicity study, sprague dawley, Oral, Feed, dose end: 2 generation
mouse [6] = details: Carcinogenicity, cd1, Oral, Feed, dose end: 24 month, group: systemic
mouse [7] = details: Carcinogenicity; cd1; Oral; [Not Specified]; dose end: 104 week; group: systemic; systemic / in life observation / body weight / body weight + systemic / in life observation / body weight / body weight gain
dog [8] = details: Chronic toxicity; beagle; Oral; Feed; dose end: 52 week; group: systemic; systemic / hematology / erythrocyte (rbc) count differential / erythrocyte (rbc) + systemic / hematology / hemoglobin (hgb) / hemoglobin (…
rat [9] = details: Combined chronic toxicity/carcinogenicity, sprague dawley, Oral, Feed, dose end: 24 month, group: systemic
rabbit = details: Prenatal developmental toxicity study, new zealand white, Oral, Gavage/Intubation, dose end: 19 GD
dog [10] = details: Chronic toxicity; beagle; Oral; Feed; dose end: 52 week; group: systemic; systemic / hematology / erythrocyte (rbc) count differential / erythrocyte (rbc) + systemic / hematology / hemoglobin (hgb) / hemoglobin (…; remark: listed apart in the source
rat [11] = details: Prenatal developmental toxicity study, sprague dawley, Oral, Gavage/Intubation, dose end: 16 GD
[12] = systemic / in life observation / mortality / mortality + systemic / pathology microscopic / kidney / inflammation
[13] = systemic / in life observation / mortality / mortality + systemic / pathology microscopic / kidney / inflammation + systemic / pathology …
[14] = systemic / in life observation / body weight / body weight gain + systemic / organ weight / heart / relative to body weight
[15] = group: developmental, developmental / developmental malformation / bone / misaligned + developmental / developmental malformation / general / hemorrhage + …
[16] = group: maternal, systemic / in life observation / body weight / body weight + systemic / in life observation / body weight / body weight gain + systemic / in…
[17] = systemic / in life observation / body weight / body weight gain + systemic / organ weight / liver / relative to body weight
[18] = systemic / in life observation / body weight / body weight gain + systemic / organ weight / liver / relative to body weight + systemic / …
[19] = group: offspring, systemic / in life observation / body weight / offspring (pup) weight
[20] = group: offspring, systemic / in life observation / body weight / offspring (pup) weight + systemic / organ weight / brain / absolute + systemic / organ weight…
[21] = group: parental, systemic / organ weight / liver / relative to body weight + systemic / hematology / hematocrit (hct) / hematocrit (hct) + systemic / …
[22] = group: parental, systemic / organ weight / liver / relative to body weight + systemic / in life observation / body weight / body weight + systemic / in life …
[23] = group: reproductive, reproductive / offspring survival early / litter size / litter size
[24] = systemic / in life observation / food consumption / food consumption
[25] = systemic / in life observation / clinical signs / hyperactivity
[26] = systemic / in life observation / clinical signs / hyperactivity + systemic / in life observation / body weight / body weight + systemic / in…
[27] = group: developmental, developmental / developmental malformation / aorta / double + developmental / developmental malformation / gallbladder / absent + …
[28] = group: maternal, systemic / in life observation / body weight / body weight gain
[29] = group: maternal, systemic / in life observation / body weight / body weight gain + reproductive / reproductive performance / aborted / aborted + systemic / …
[30] = group: developmental, systemic / in life observation / body weight / fetal weight
[31] = group: maternal, systemic / in life observation / clinical signs / alopecia + systemic / in life observation / clinical signs / vaginal discharge
[32] = group: maternal, systemic / in life observation / clinical signs / alopecia + systemic / in life observation / clinical signs / vaginal discharge + systemic…

With `O=[N+]([O-])c1ccc(O)cc1C(F)(F)F` [3-Trifluoromethyl-4-nitrophenol] the LOAEL (hamster; [12]) was 24.9 mg/kg/day, the NOAEL (hamster; [12]) was < 24.9 mg/kg/day and the LEL (hamster; [13]) was 24.9 mg/kg/day. For the same compound, the NEL (hamster; [13]) was < 24.9 mg/kg/day, the LOAEL (rat [1]; [14]) was 146 mg/kg/day and the NEL (rat [1]; [14]) was 25 mg/kg/day. For the same compound, the NOAEL (rat [1]; [14]) was 81 mg/kg/day and the LEL (rat [1]; systemic / organ weight / heart / relative to body weight) was 45 mg/kg/day.
In the case of `CCSC(=O)N(CC(C)C)CC(C)C` [Butylate], the LEL (rat [2]) is reported as 100 mg/kg/day, the LOAEL (rat [2]) is reported as 100 mg/kg/day and the NEL (rat [2]) is reported as 50 mg/kg/day. The NOAEL (rat [2]) was 50 mg/kg/day, the LEL (rat [3]; [15]) was 400 mg/kg/day and the LOAEL (rat [3]; [15]) was 400 mg/kg/day. For the same compound, the NEL (rat [3]; [15]) was 40 mg/kg/day, the NOAEL (rat [3]; [15]) was 40 mg/kg/day and the LEL (rat [3]; [16]) was 400 mg/kg/day. The LOAEL (rat [3]; [16]) was 400 mg/kg/day, the NEL (rat [3]; [16]) was 40 mg/kg/day and the NOAEL (rat [3]; [16]) was 40 mg/kg/day. It also gave an LEL (dog [4]; [17]) of 25 mg/kg/day, an LOAEL (dog [4]; [17]) of 25 mg/kg/day and an NEL (dog [4]; [18]) of 5 mg/kg/day. For the same compound, the NOAEL (dog [4]; [18]) was 5 mg/kg/day, the NEL (rat [5]; [19]) was 10 mg/kg/day and the NOAEL (rat [5]; [19]) was 10 mg/kg/day. The LEL (rat [5]; [20]) was 50 mg/kg/day, the LOAEL (rat [5]; [20]) was 50 mg/kg/day and the NEL (rat [5]; [21]) was 10 mg/kg/day. It also gave an NOAEL (rat [5]; [21]) of 10 mg/kg/day, an LEL (rat [5]; [22]) of 50 mg/kg/day and an LOAEL (rat [5]; [22]) of 50 mg/kg/day. For the same compound, the LEL (rat [5]; [23]) was 200 mg/kg/day, the LOAEL (rat [5]; [23]) was > 200 mg/kg/day and the NEL (rat [5]; [23]) was 50 mg/kg/day. The NOAEL (rat [5]; [23]) was ≥ 200 mg/kg/day, the LOAEL (mouse [6]; systemic / in life observation / body weight / body weight + systemic / pathology microscopic / kidney / amyloid deposition + systemic / …) was 80 mg/kg/day and the LEL (mouse [6]; [24]) was 20 mg/kg/day. The NEL (mouse [6]; [24]) was < 20 mg/kg/day and the NOAEL (mouse [6]; systemic / in life observation / food consumption / food consumption + systemic / in life observation / body weight / body weight + systemic…) was 20 mg/kg/day.
Compound `COc1nc(C)nc(NC(=O)NS(=O)(=O)c2ccccc2Cl)n1` [Chlorsulfuron] has an LEL (mouse [7]) of 750 mg/kg/day, an LOAEL (mouse [7]) of 750 mg/kg/day and an NEL (mouse [7]) of 108 mg/kg/day. For the same compound, the NOAEL (mouse [7]) was 108 mg/kg/day, the LEL (dog [8]) was 254 mg/kg/day and the LOAEL (dog [8]) was 254 mg/kg/day. For the same compound, the NEL (dog [8]) was 60.6 mg/kg/day, the NOAEL (dog [8]) was 60.6 mg/kg/day and the LEL (rat [9]; [25]) was 30 mg/kg/day. For the same compound, the LOAEL (rat [9]; [25]) was 30 mg/kg/day, the NEL (rat [9]; [26]) was 2 mg/kg/day and the NOAEL (rat [9]; [26]) was 2 mg/kg/day. The LEL (rabbit; [27]) was 400 mg/kg/day, the LOAEL (rabbit; [27]) was 400 mg/kg/day and the NEL (rabbit; [27]) was 200 mg/kg/day. For the same compound, the NOAEL (rabbit; [27]) was 200 mg/kg/day, the LEL (rabbit; [28]) was 200 mg/kg/day and the LOAEL (rabbit; [28]) was 200 mg/kg/day. For the same compound, the NEL (rabbit; [29]) was 75 mg/kg/day, the NOAEL (rabbit; [29]) was 75 mg/kg/day and the LEL (dog [10]) was 254 mg/kg/day. The LOAEL (dog [10]) was 254 mg/kg/day, the NEL (dog [10]) was 60.6 mg/kg/day and the NOAEL (dog [10]) was 60.6 mg/kg/day. For the same compound, the LEL (rat [11]; [30]) was 1500 mg/kg/day, the LOAEL (rat [11]; [30]) was 1500 mg/kg/day and the NEL (rat [11]; [30]) was 500 mg/kg/day. For the same compound, the NOAEL (rat [11]; [30]) was 500 mg/kg/day, the LEL (rat [11]; [31]) was 500 mg/kg/day and the LOAEL (rat [11]; [31]) was 500 mg/kg/day. For the same compound, the NEL (rat [11]; [32]) was 165 mg/kg/day and the NOAEL (rat [11]; [32]) was 165 mg/kg/day.
